One test has as its target T1, JAK3 enzyme (Homo sapiens, UniProt P52333).
T1 sequence (P52333 1-1124): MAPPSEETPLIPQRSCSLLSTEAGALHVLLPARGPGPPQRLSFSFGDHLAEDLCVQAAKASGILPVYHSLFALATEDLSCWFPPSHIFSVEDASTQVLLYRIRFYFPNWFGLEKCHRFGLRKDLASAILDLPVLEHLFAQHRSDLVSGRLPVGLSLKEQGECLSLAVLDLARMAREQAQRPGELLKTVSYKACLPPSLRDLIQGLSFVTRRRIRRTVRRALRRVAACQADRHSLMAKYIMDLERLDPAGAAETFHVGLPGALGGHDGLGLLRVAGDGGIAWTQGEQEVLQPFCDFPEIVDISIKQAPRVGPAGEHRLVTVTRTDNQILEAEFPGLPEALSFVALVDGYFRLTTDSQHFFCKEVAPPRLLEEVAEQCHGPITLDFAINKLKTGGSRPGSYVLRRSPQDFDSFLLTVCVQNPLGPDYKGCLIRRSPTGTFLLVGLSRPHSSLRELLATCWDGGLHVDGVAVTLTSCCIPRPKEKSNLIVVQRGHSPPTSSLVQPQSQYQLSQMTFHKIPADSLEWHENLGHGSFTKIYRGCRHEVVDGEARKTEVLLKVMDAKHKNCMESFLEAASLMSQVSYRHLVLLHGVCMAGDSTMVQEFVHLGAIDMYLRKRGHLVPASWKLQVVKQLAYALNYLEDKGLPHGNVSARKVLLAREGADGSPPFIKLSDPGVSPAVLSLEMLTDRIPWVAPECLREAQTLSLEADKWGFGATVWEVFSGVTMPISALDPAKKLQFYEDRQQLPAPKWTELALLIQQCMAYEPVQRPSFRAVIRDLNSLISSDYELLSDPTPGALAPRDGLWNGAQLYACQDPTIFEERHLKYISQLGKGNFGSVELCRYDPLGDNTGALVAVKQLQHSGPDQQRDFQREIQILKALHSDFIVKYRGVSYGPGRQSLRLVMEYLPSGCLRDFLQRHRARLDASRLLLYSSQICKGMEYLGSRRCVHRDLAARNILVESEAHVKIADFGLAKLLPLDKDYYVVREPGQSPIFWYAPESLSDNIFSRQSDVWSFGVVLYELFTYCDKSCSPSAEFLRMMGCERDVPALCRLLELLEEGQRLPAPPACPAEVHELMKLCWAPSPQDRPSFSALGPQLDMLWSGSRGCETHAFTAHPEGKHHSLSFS
The experiment in a line: JAK Caliper Enzyme Assay at 4 μM ATP. The format is biochemical. The essentials:
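Compound tested as 11-point half-log DMSO dilution series (top 600 μM in DMSO, a dilution-plate level). Enzyme level and time set for 20%-30% peptide phosphorylation; phosphorylated and unphosphorylated peptide separated and quantified by Caliper LC3000 mobility shift.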

Test [1] concerns IL-15 induced P-STAT5 in human PBMC. The experiment in a line: PBMC IL-15 Induced P-STAT5. Type of test: cell-based. Conditions: human PBMC, IL-15 final 41 ng/mL; read-out: PBMC IL15_pSTAT5_IC50. The essentials:
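Thawed human PBMC, rested in human plasma, were preincubated 15 min at 37 °C with compound (0.2% DMSO), then stimulated 15 min with IL-15 at 41 ng/mL final. After paraformaldehyde fixation and methanol permeabilisation, Alexa Fluor 647 anti-STAT5 staining overnight at 4 °C was analysed by flow cytometry on total lymphocytes.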

This note sets out measurements from US10703756B2, “Pyrrolo[2,3-D]pyrimidinyl, pyrrolo[2,3-B]pyrazinyl, pyrrolo[2,3-B]pyridinyl acrylamides and epoxides thereof” (Pfizer Inc., priority 2015, dated 2020).

Molecules are shown by their SMILES.

`C=CC(=O)N1CC(CF)CC(Nc2ncnc3[nH]ccc23)C1` (mixture of isomers) [Example 102, Cis-racemic-1-[3-(fluoromethyl-5-(7H-pyrrolo[2,3-d]pyrimidin-4-ylamino)piperidin-1-yl]prop-2-en-1-one]: the IC50 against JAK3 enzyme came to 1.9 nM; in test [1] it was 237 nM.
On the same counts, the results for `C=CC(=O)N1CC[C@@H](Nc2cnc3[nH]cc(C(=O)NCC)c3n2)[C@@H](C)C1` (racemic) [Example 37, Cis-racemic-2-{[(3S,4R)-1-acryloyl-3-methylpiperidin-4-yl]amino}-N-ethyl-5H-pyrrolo[2,3-b]pyrazine-7-carboxamide] are 0.375 nM and 676 nM.
For the compound `C=CC(=O)N1CC[C@H](Nc2cnc3[nH]cc(C(=O)NCC)c3n2)C[C@H]1C` (racemic) [Example 40, Trans-racemic-2-{[(2R,4S)-1-acryloyl-2-methylpiperidin-4-yl]amino}-N-ethyl-5H-pyrrolo[2,3-b]pyrazine-7-carboxamide], the IC50 was found to be 0.384 nM against JAK3 enzyme and 134 nM in test [1].
On the same counts, the results for `C=CC(=O)N1CC[C@@H](Oc2cnc3[nH]cc(C(=O)N[C@@H](C)COC)c3n2)C[C@@H]1C` (racemic) [Example 71, Trans-racemic-2-{[1-acryloyl-2-methylpiperidin-4-yl]oxy}-N-[(2S)-1-methoxypropan-2-yl]-5H-pyrrolo[2,3-b]pyrazine-7-carboxamide] are 1.13 nM and 260 nM.
For `C=CC(=O)N1CC[C@@H](Oc2cnc3[nH]cc(C(=O)NCC)c3n2)C[C@@H]1C` (racemic) [Example 77, Trans-racemic-2-{[1-acryloyl-2-methylpiperidin-4-yl]oxy}-N-ethyl-5H-pyrrolo[2,3-b]pyrazine-7-carboxamide] the same measures were 0.702 nM and 561 nM.
For `C=CC(=O)N1C[C@H](Nc2ncnc3[nH]ccc23)CC[C@@H]1CNC(C)=O` (racemic) [Example 88, rac-N-(((2R,5R)-5-((7H-pyrrolo[2,3-d]pyrimidin-4-yl)amino)-1-acryloylpiperidin-2-yl)methyl)acetamide], the IC50 stood at 1.5 nM on JAK3 enzyme and 3450 nM in test [1].
On to `C=CC(=O)N1C[C@@H](CC#N)C[C@@H](Nc2ncnc3[nH]ccc23)C1` (racemic) [Example 105, Cis-racemic-[1-acryloyl-5-(7H-pyrrolo[2,3-d]pyrimidin-4-ylamino)piperidin-3-yl]acetonitrile], for which the IC50 at JAK3 enzyme came out at 0.408 nM; in test [1], 324 nM.
For `C=CC(=O)N1CCC(Oc2cnc3[nH]cc(C(=O)NC4CCCC4)c3n2)CC1` (racemic) [Example 204, Racemic-2-[(1-acryloylpiperidin-4-yl)oxy]-N-cyclopentyl-5H-pyrrolo[2,3-b]pyrazine-7-carboxamide] the same measures were 0.272 nM and 130 nM.
On the same counts, the results for `C=CC(=O)N1CCC(Oc2cnc3[nH]cc(C(=O)NC(C)C4CC4)c3n2)CC1` (racemic) [Example 220, Racemic-2-[(1-acryloylpiperidin-4-yl)oxy]-N-(1-cyclopropylethyl)-5H-pyrrolo[2,3-b]pyrazine-7-carboxamide] are 0.211 nM and 100 nM.
For `C=CC(=O)N1CC[C@H](Nc2cnc3[nH]cc(C(=O)NCC(C)CC(F)(F)F)c3n2)[C@H](OC)C1` (mixture of isomers) [Example 328, Racemic-2-{[(3R,4S)-1-acryloyl-3-methoxypiperidin-4-yl]amino}-N-(4,4,4-trifluoro-2-methylbutyl)-5H-pyrrolo[2,3-b]pyrazine-7-carboxamide] the same measures were 0.578 nM and 143 nM.
Consider `C=CC(=O)N1CCC[C@H](Nc2cnc3[nH]cc(C(=O)NCC)c3n2)C1` (single isomer, unassigned) [Example 36], for which the IC50 against JAK3 enzyme was 0.875 nM; in test [1], 176 nM.
For `C=CC(=O)N1CC[C@@H](Nc2cnc3[nH]cc(C(=O)NCC)c3n2)[C@@H](C)C1` (single isomer, unassigned) [Example 38] the same measures were 0.328 nM and 205 nM.
On the same counts, the results for `C=CC(=O)N1CC[C@H](Nc2cnc3[nH]cc(C(=O)NCC)c3n2)C[C@H]1C` (single isomer, unassigned) [Example 41] are 0.159 nM and 147 nM.
As to `C=CC(=O)N1CC[C@@H](Nc2cnc3[nH]cc(C(=O)NCC)c3n2)C[C@@H]1C` (single isomer, unassigned) [Example 42], the IC50 on JAK3 enzyme turned out to be 0.4 nM; in test [1] it was 357 nM.
On the same counts, the results for `C=CC(=O)N1CC[C@@H](Nc2cnc3[nH]cc(C(=O)NCC)c3n2)[C@H](C)C1` (single isomer, unassigned) [Example 44] are 0.35 nM and 315 nM.
On the same counts, the results for `C=CC(=O)N1CC[C@@H](Oc2cnc3[nH]cc(C(=O)NCC)c3n2)[C@H](C)C1` (single isomer, unassigned) [Example 47] are 1.18 nM and 363 nM.
For `C=CC(=O)N1CC[C@@H](Oc2cnc3[nH]cc(C(=O)N[C@@H](C)COC)c3n2)C[C@@H]1C` (single isomer, unassigned) [Example 73] the same measures were 0.971 nM and 174 nM.
With `C=CC(=O)N1CC[C@@H](Oc2cnc3[nH]cc(C(=O)NCC)c3n2)C[C@@H]1C` (single isomer, unassigned) [Example 79], the results for the IC50 (against JAK3 enzyme; in test [1]) were 0.608 nM and 264 nM, respectively.
On the same counts, the results for `C=CC(=O)N1C[C@@H](CF)C[C@@H](Nc2ncnc3[nH]ccc23)C1` (single isomer, unassigned) [Example 103] are 0.424 nM and 155 nM.
Turning to `C=CC(=O)N1C[C@@H](CC#N)C[C@@H](Nc2ncnc3[nH]ccc23)C1` (single isomer, unassigned) [Example 106], the IC50 against JAK3 enzyme was found to be 0.125 nM; in test [1], 192 nM.
With `C=CC(=O)N1CCC(N(C)c2cnc3[nH]cc(C(=O)NC(C)C)c3n2)CC1` [Example 64, 2-[(1-acryloylpiperidin-4-yl)(methyl)amino]-N-(propan-2-yl)-5H-pyrrolo[2,3-b]pyrazine-7-carboxamide], the IC50 on JAK3 enzyme is 0.408 nM; in test [1] it was 228 nM.
For `C=CC(=O)N(C)C1CN(c2cnc3[nH]cc(C(=O)N[C@H](C)COC)c3n2)C1` [Example 86, 2-{3-[acryloyl(methyl)amino]azetidin-1-yl}-N-[(2R)-1-methoxypropan-2-yl]-5H-pyrrolo[2,3-b]pyrazine-7-carboxamide] the same measures were 0.515 nM and 260 nM.
For `C=CC(=O)N1C[C@H](COCCC#N)C[C@H](Nc2ncnc3[nH]ccc23)C1` [Example 101, 3-{[(3R,5S)-1-Acryloyl-5-(7H-pyrrolo[2,3-d]pyrimidin-4-ylamino)piperidin-3-yl]methoxy}propanenitrile] the same measures were 0.219 nM and 227 nM.
For `C=CC(=O)N1C[C@H](CN2CC[C@H](C#N)C2)C[C@H](Nc2ncnc3[nH]ccc23)C1` [Example 108, (S)-1-(((3S,5S)-5-((7H-pyrrolo[2,3-d]pyrimidin-4-yl)amino)-1-acryloylpiperidin-3-yl)methyl)pyrrolidine-3-carbonitrile] the same measures were 0.769 nM and 3260 nM.
